Like-named read-outs stand apart in the source and are kept apart here. One block for each molecule: values may come before it.
Experiments:
[1] = molecular target: angiotensin-converting enzyme (ACE); conditions: cited from earlier work; for IC50: read-out: IC50 (ACE inhibition)
From the text: The immobilization of ACE using various immobilization media is a promising affinity purification method to obtain shorter peptides from diverse sources. […] Feng et al. used a novel affinity medium Fe3O4@ZIF-90 and combined this method with reversed-phase high-performance liquid chromatography (RP-HPLC) and MALDI-TOF mass spectrometry to purify ... || Collectively, low-molecular-weight fractions isolated from SCGHs using the ultrafiltration method allowed us to obtain small peptides with potent ACE inhibitory activity. ACE inhibitory molecules are typically characterized by their small and short-chain peptide structures. In this study, a combination of ultrafiltration separation and SCGH effectively eliminated substances above 3 kDa. We further isolated the active components by utilizing an ACE enzyme affinity column, which facilitated the removal of other nonspecifically bound substances and yielded the target peptides. […] For instance, the experimentally purified short peptide DDQYHIF features Phe at the C-terminus, while HDWWKER has basic amino acids Arg and His at the C- and N-termini, respectively. Sun et al. reported that peptides with Arg at the C-termi ...

[2] = molecular target: T1, angiotensin-I-converting enzyme (ACE) (UniProt P12822 34-1260); test: cell-based or functional assay
T1 sequence (looked up): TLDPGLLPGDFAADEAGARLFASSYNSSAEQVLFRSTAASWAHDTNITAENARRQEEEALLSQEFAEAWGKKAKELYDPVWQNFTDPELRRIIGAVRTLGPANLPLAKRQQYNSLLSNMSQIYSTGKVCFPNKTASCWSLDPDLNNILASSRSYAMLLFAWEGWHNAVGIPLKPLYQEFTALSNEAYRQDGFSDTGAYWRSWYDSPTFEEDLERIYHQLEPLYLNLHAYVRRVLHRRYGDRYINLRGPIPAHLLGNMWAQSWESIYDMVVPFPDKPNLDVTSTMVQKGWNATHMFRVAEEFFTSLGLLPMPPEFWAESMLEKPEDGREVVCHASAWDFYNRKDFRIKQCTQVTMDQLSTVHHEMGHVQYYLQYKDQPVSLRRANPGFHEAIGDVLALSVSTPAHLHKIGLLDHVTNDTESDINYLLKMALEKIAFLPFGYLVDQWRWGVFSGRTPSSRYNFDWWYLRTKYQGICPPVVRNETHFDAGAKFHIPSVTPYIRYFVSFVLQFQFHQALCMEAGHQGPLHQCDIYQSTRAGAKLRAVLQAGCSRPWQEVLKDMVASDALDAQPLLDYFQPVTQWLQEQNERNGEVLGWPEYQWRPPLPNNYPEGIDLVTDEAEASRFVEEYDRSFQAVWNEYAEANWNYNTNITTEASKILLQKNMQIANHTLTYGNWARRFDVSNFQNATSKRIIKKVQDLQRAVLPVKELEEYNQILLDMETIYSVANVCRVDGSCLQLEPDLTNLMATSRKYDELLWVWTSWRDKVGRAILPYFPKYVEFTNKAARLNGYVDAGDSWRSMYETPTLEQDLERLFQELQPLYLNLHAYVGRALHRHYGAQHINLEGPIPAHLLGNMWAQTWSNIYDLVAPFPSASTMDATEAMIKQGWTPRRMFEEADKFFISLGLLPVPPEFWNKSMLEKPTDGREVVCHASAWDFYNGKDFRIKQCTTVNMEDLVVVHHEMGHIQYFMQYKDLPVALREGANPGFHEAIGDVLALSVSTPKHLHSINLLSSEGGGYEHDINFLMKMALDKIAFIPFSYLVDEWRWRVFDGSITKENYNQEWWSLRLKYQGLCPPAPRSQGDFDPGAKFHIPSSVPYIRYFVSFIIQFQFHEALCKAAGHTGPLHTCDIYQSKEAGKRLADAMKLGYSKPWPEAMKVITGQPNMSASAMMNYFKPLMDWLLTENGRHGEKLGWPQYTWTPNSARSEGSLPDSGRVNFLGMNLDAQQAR

[3] = from Ulva intestinalis, ref [32]

Molecule: EIYR
IC50 ([1]; from sea cucumber gonads, ref Zhong et al. (2018)): 348 µM

Molecule: FGMPLDR
IC50 [1, 3]: 219 µM

Molecule: GMKCA
ACE inhibition (in words) ([1]; ref [9]): ACE inhibitory peptide
IC50 ([1]; ref [9]): 45.7 µM

Molecule: KNFL
ACE inhibition (in words) ([1]; from Undaria pinnatifida, ref [8]): ACE inhibitory peptide

Molecule: LLYQEPVLGPVR
ACE inhibition (in words) ([1]; from casein hydrolysate, ref [7]): potent ACE inhibitory peptide

Molecule: MELVLR
IC50 [1, 3]: 237 µM

Molecule: TLRFALHGME [novel peptide from Takifugu flavidus hydrolysate]
IC50 ([1]; from Takifugu flavidus hydrolysate, ref [17]): 93.5 µM

IC50 of ACE inhibition (HHL substrate, HPLC) [2]: 334 µM
Molecule: DDQYHIF

IC50 of ACE inhibition (HHL substrate, HPLC) [2]: 1290 µM
Molecule: THDWWKER

IC50 of ACE inhibition (HHL substrate, HPLC) [2]: 584 µM
Molecule: HDWWKER

Reference: publication PMC10890666, “Targeted Affinity Purification and Mechanism of Action of Angiotensin-Converting Enzyme (ACE) Inhibitory Peptides from Sea Cucumber Gonads” (Marine Drugs, 2024)
